Test results: patent US9993462B2, “Hydantoin derivative-containing pharmaceutical composition” (Chugai Seiyaku Kabushiki Kaisha, priority 2014, dated 2018)

Columns and labels:
normal rats = experiment: Growth plate cartilage histology after four weeks of repeated oral administration to normal rats; type: in vivo, rat
Description: Female RccHan: WIST rats obtained from Japan Laboratory Animals Inc. were acclimated for at least one week under standard laboratory conditions of 20° C. to 26° C. and 30% to 70% humidity, and then used in experiments. The rats had free access to tap water and a standard rodent diet (CE-2, Clea Japan Inc.) containing 1.1% calcium, 1.0% phosphoric acid, and 250 IU/100 g vitamin D3.
After body weight measurement for the six-week old rats, they were divided into groups so that the average body weight of each group of ten rats would be even. From the day following group division, all rats were administered once a day repeatedly for four weeks. The solvent (vehicle) was orally administered to the Vehicle-Control group. To the Compound 7-6 mg/kg group, Compound 7-60 mg/kg group, and Compound 7-600 mg/kg group, Compound 7 suspended in the vehicle was administered orally at a dose of 6 mg/kg, 60 mg/kg, and 600 mg/kg, respectively. For all groups, the volume of administration was 2 mL/kg. Propylene glycol (special grade, Kanto Chemical Co., Inc.) was used for the vehicle. The rats were euthanized under anesthesia one day after the final administration by collecting blood from the abdominal aorta, and then autopsy was performed to collect the femur. The femur was fixed using a 10% neutral buffered formalin solution, and after demineralization, samples of paraffin-embedded tissue sections (hematoxylin-eosin stained) were prepared. Distal ends of the femur of the produced samples were observed histopathologically under a light microscope.

rat hepatocyte = experiment: Metabolic stability using rat hepatocyte; type: in vitro ADME
Description: Liver cells were prepared from the liver of rats (SD, female) by a collagenase perfusion method. A compound of the Reference Examples or a Comparative Example was added, and this was incubated at 37° C. for a specified amount of time, followed by addition of a reaction-stopping solution. The concentration of the parent compound at each reaction time was measured using LC/MS/MS, and inherent clearance (μL/10^6 cells/min) was calculated from the slope of the reaction time versus residual rate.
• Cell concentration: 1×10^6 cells/mL • Compound concentration: 1 μM • Medium: Williams' medium E • Reaction time: 0, 15, 30, 60, 120, and 240 minutes • Reaction-stopping solution: acetonitrile/2-propanol (4/6, v/v)

TPTX rat = experiment: Calcemic action in the TPTX rat model; type: in vivo; settings: TPTX rats, 30 mg/kg oral
Description: Four-week old female Crl:CD(SD) rats were obtained from Charles River Japan (Atsugi Breeding Center), and were acclimated to standard laboratory conditions of 20-26° C. and 35-75% humidity for one week. The rats were given tap water and were fed ad libitum with standard rodent chow (CE-2) (CLEA Japan, Inc.) containing 1.1% calcium, 1.0% phosphoric acid, and 250 IU/100 g of vitamin D3.
TPTX was performed on five-week old rats. Some of the individuals were subjected to sham operation (Sham). Individuals whose serum Ca concentration was less than 8 mg/dL on four days after the operation were selected for use as TPTX rats. On five days after the operation, the rats were assigned to eight TPTX groups and one Sham group (n=5, each group) based on their body weight and serum Ca concentration measured on four days after the operation. The solvent alone was orally administered to the Sham group and the TPTX-Vehicle group at a volume of 10 mL/kg. Each test article was orally administered individually to each TPTX test article group by dissolving it in a solvent at a dose of 30 mg/10 mL/kg. The solvent composition was 10% dimethylsulfoxide (Wako Pure Chemical Industries, Ltd.), 10% Cremophor EL (Sigma-Aldrich Japan LLC), 20% hydroxypropyl-β-cyclodextrin (Nihon Shokuhin Kako Co., Ltd.), glycine (Wako Pure Chemical Industries, Ltd.); and the pH was adjusted to 10. Immediately before administration of each sample, Pre-blood collection was performed, and blood collection was carried out at 2, 6, 10, and 24 hours after administration to measure the serum Ca concentration. Each blood collection was carried out from the jugular vein under isoflurane inhalation anesthesia.
Serum Ca measurement: Serum obtained by centrifugation from the collected blood was measured by using an automatic analyzer TBA-120FR (Toshiba Medical Systems Corporation).
For statistical analysis of the animal studies, data are shown as mean±standard error (SE). Statistical analysis were performed by unpaired test of the SAS Preclinical Package (Ver. 5.00.010720, SAS Institute Japan, Tokyo, Japan).

[1] = 60 mg/kg oral once a day for four weeks, 10 per group
[2] = 600 mg/kg oral once a day for four weeks, 10 per group

Compound: Cc1cc(N2C(=O)NC(=O)C2(C)C)cc(C)c1CCS(=O)(=O)N1CCC2(CC1)N=C(c1ccc(OC(F)(F)F)cc1)NC2=O [Compound 7, 1-(3,5-dimethyl-4-(2-((4-oxo-2-(4-(trifluoromethoxy)phenyl)-1,3,8-triazaspiro[4.5]deca-1-en-8-yl)sulfonyl)ethyl)phenyl)-5,5-dimethylimidazolidine-2,4-dione]
- Number of cases in which growth plate cartilage thickening was observed, Grade 1 (normal rats; [1]): 5
- Number of cases in which growth plate cartilage thickening was observed, Grade 2 (normal rats; [1]): 3
- Number of cases in which growth plate cartilage thickening was observed, Overall (normal rats; [1]): 8
- Number of cases in which growth plate cartilage thickening was observed, Grade 3 (normal rats; [2]): 1
- Number of cases in which growth plate cartilage thickening was observed, Grade 4 (normal rats; [2]): 9
- Number of cases in which growth plate cartilage thickening was observed, Overall (normal rats; [2]): 10
- thickening of the femoral growth plate cartilage in comparison to the Vehicle-Control group (in words) (normal rats; 6, 60, 600 mg/kg oral once a day for four weeks): dose-dependent thickening
- width of a representative growth plate cartilage (normal rats; one individual of the 600 mg/kg group, from the tissue image of FIG. 8 (Vehicle-Control individual approximately 390 μm)): approximately 2940 μm
- rat hepatocyte metabolic stability compared to Comparative Examples 1, 2, 3, 5, and 6 (in words) (rat hepatocyte): increased
- achievement of the therapeutic target range of serum Ca concentration of 7.6 to 8.8 mg/dL (TPTX rat): achieved the therapeutic target range
- change of serum Ca concentration from the Pre-value (in words) (TPTX rat; up to 24 hours after administration): large positive changes from the Pre-value
